pKi: −log10 of the molar value.

What is called pKi is the Ki on a negative log10 scale, so that one unit is a factor of ten.

Type in all cases: biochemical
In test [1] the target is T1, ENPP1 (Homo sapiens, UniProt P22413).
T1 sequence (P22413 1-925): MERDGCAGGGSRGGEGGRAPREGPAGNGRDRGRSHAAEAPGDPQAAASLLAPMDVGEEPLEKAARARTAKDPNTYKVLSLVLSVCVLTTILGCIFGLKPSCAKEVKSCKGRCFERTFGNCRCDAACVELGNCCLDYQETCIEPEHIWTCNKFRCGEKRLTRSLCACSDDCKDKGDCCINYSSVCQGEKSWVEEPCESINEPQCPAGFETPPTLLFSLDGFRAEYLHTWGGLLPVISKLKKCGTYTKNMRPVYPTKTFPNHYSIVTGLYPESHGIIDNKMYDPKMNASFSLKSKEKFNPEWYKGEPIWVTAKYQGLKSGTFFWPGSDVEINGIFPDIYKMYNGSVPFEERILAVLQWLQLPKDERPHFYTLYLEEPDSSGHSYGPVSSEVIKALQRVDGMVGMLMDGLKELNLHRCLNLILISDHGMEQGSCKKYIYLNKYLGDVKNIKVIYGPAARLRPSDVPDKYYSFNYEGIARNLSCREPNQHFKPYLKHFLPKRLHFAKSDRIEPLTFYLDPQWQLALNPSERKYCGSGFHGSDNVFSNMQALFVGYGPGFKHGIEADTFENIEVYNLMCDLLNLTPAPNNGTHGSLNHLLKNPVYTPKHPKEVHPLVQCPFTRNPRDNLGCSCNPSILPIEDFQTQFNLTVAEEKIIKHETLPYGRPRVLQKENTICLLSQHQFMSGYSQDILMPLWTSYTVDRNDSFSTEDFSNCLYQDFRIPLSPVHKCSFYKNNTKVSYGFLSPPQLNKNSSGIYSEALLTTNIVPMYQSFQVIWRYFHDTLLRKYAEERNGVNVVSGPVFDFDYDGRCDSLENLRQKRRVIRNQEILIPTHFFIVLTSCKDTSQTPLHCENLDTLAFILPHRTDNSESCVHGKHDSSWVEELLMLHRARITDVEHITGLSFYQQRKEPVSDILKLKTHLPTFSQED
Nature of the test: Substrate selectivity ratio, inhibition of cGAMP hydrolysis versus ATP hydrolysis. As to conditions: ratio Ki AMP-pNP / Ki cGAMP. As to the method: The selectivity ratios for inhibition of cGAMP hydrolysis versus ATP hydrolysis were then calculated as follows: […]

In test [2] the target is T1, ENPP1. Nature of the test: ENPP1 enzyme assay with AMP-pNP substrate (hydrolysis of ATP analog). Particulars: AMP-pNP substrate (ATP analog); Ki from IC50 by Cheng-Prusoff; read-out: ENPP1 Inhibition _AMP-pNP: Ki. The procedure, abridged:
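Human recombinant ENPP1 (60 ng/well) with 300 µM AMP-pNP in 50 mM Tris-HCl pH 8.5, 250 mM NaCl, 0.5 mM CaCl2, 1 µM ZnCl2, 0.1% DMSO, 20 min at 37 °C.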

The target of test [3] is T1, ENPP1. Nature of the test: Indirect quantitation of 2',3'-cGAMP hydrolysis (AMP-Glo Assay kit). As to conditions: cGAMP substrate; Ki from IC50 by Cheng-Prusoff; read-out: ENPP1 Inhibition -cGAMP: Ki.

As for `COc1ccc2c(N3CCc4cc(NS(N)(=O)=O)ccc43)ccnc2c1F` [Example 376, N-(1-(8-fluoro-7-methoxyquinolin-4-yl)indolin-5-yl)sulfamide], the “Substrate Selectivity: Ki_AMP-pNP/Ki_cGAMP” value (“Substrate Selectivity” for short) at ENPP1 [1] is recorded as above 77. For the same compound, the results for the negative-log Ki (pKi) on ENPP1 [2] and at ENPP1 [3] were below 6.00 and 6.00 to 7.00, respectively.
For `COc1ccc2c(Oc3ccc(NS(N)(=O)=O)cc3)ccnc2n1` [Example 73, N-(4-((7-methoxy-1,8-naphthyridin-4-yl)oxy)phenyl)sulfamide], in that order: 24.2, above 7.00 and above 7.00.
For `COc1ccc2c(-c3ccc(CNS(N)(=O)=O)c(C)c3)ccnc2c1` [Example 374, N-(4-(7-methoxyquinolin-4-yl)-2-methylbenzyl) sulfamide], in that order: above 138, below 6.00 and above 7.00.
For `Cn1cnc2nccc(-c3ccc4c(c3)CN(S(N)(=O)=O)CC4)c21` [Example 193, 7-(1-methyl-1H-imidazo[4,5-b]pyridin-7-yl)-3,4-dihydroisoquinoline-2(1H)-sulfonamide], at ENPP1 [1], the “Substrate Selectivity” value is given as above 38.6. Also, the pKi was below 6.00 at ENPP1 [2] and above 7.00 on ENPP1 [3].
In the same order, the values of `COc1cc2ncnc(-c3ccc4c(c3)CCN(S(N)(=O)=O)C4)c2cc1OC` [Example 121, 6-(6,7-dimethoxyquinazolin-4-yl)-3,4-dihydroisoquinoline-2(1H)-sulfonamide] are above 61.5, below 6.00 and above 7.00.
Take `COc1cc2nccc(Oc3ccc(N(O)C=O)cc3)c2cc1OC` [Example 292, N-(4-((6,7-dimethoxyquinolin-4-yl)oxy)phenyl)-N-hydroxyformamide]: at ENPP1 [1], the “Substrate Selectivity” value is above 31.1. For the same compound, the values for the pKi at ENPP1 [2] and at ENPP1 [3] were below 6.00 and above 7.00, respectively.
As to `COc1ccc2c(N3CCC4(CC3)CCN(S(N)(=O)=O)C4)ncnc2c1` [Example 65, 8-(7-methoxyquinazolin-4-yl)-2,8-diazaspiro [4.5] decane-2-sulfonamide], on ENPP1 [1], the “Substrate Selectivity” value amounted to 38.7. The pKi at ENPP1 [2] and on ENPP1 [3] was above 7.00 in each case.
In the case of `COc1cc2c(N3CCC4(CC3)CCN(S(N)(=O)=O)C4)c(C#N)cnc2cn1` [Example 256, 8-(3-cyano-6-methoxy-1,7-naphthyridin-4-yl)-2,8-diazaspiro [4.5] decane-2-sulfonamide], at ENPP1 [1], the “Substrate Selectivity” value is given as above 118. The pKi at ENPP1 [2] was below 6.00; at ENPP1 [3], above 7.00.
For `COc1cc2ncc(C#N)c(-c3ccc4c(c3)CN(S(N)(=O)=O)CC4)c2cc1OC` [Example 149, 7-(3-cyano-6,7-dimethoxyquinolin-4-yl)-3,4-dihydroisoquinoline-2(1H)-sulfonamide], in that order: 12.2, above 7.00 and above 7.00.
For `COc1cc2ncnc(NC(C)c3ccc(NS(N)(=O)=O)cc3)c2cc1OC` (stereo not drawn) [Example 140, N-(4-(1-((6,7-dimethoxyquinazolin-4-yl)amino)ethyl)phenyl) sulfamide], in that order: 25.1, 6.00 to 7.00 and above 7.00.
In the same order, the values of `COc1cc2ncnc(-c3ccc(CCNS(N)(=O)=O)cc3)c2cc1OC` [Example 145, N-(4-(6,7-dimethoxyquinazolin-4-yl)phenethyl)sulfamide] are 20.7, 6.00 to 7.00 and above 7.00.
Take `COc1cc2ncnc(NCc3ccc(S(N)(=O)=O)cc3)c2cc1F` [Example 259, 4-(((6-fluoro-7-methoxyquinazolin-4-yl)amino)methyl)benzenesulfonamide]: the “Substrate Selectivity” value on ENPP1 [1] is 41.6. For the same compound, the pKi on ENPP1 [2] and on ENPP1 [3] was above 7.00 in each case.
For the compound `NS(=O)(=O)N1CCC2(CCN(c3ncnc4ccccc34)CC2)C1` [Example 158, 8-(quinazolin-4-yl)-2,8-diazaspiro [4.5] decane-2-sulfonamide], the “Substrate Selectivity” value on ENPP1 [1] is listed as 16.3. Besides, the negative logarithm of the Ki (pKi) at ENPP1 [2] was 6.00 to 7.00; at ENPP1 [3], above 7.00.
In the same order, the values of `COc1ccc2c(-c3ccc4c(c3)CN(S(N)(=O)=O)C4)ccnc2c1` [Example 402, 5-(7-methoxyquinolin-4-yl)isoindoline-2-sulfonamide] are 46, 6.00 to 7.00 and above 7.00.
For the compound `COc1cc2ncnc(N3CCC(CCn4nnc(N)n4)CC3)c2cc1OC` [Example 195, 2-(2-(1-(6,7-dimethoxyquinazolin-4-yl)piperidin-4-yl)ethyl)-2H-tetrazol-5-amine], the “Substrate Selectivity” value on ENPP1 [1] is listed as above 45.7. Moreover, the values for the pKi at ENPP1 [2] and on ENPP1 [3] were below 6.00 and 6.00 to 7.00, respectively.
In the same order, the values of `N#Cc1cnc2cc(OC(F)F)ccc2c1-c1ccc2c(c1)CN(S(N)(=O)=O)CC2` [Example 262, 7-(3-cyano-7-(difluoromethoxy)quinolin-4-yl)-3,4-dihydroisoquinoline-2(1H)-sulfonamide] are above 173, below 6.00 and 6.00 to 7.00.
For `COc1cc2ncc(-c3ccc(CNS(N)(=O)=O)cc3)n2cc1OC` [Example 266, N-(4-(6,7-dimethoxyimidazo[1,2-a]pyridin-3-yl)benzyl)sulfamide], in that order: above 5.9, 6.00 to 7.00 and above 7.00.
`COc1ccc2ncnc(N3CCC(CCNS(N)(=O)=O)CC3)c2c1` [Example 199, N-(2-(1-(6-methoxyquinazolin-4-yl)piperidin-4-yl)ethyl)sulfamide]: at ENPP1 [1], the “Substrate Selectivity” value is 33.6. Also, the pKi at ENPP1 [2] is 6.00 to 7.00; at ENPP1 [3], above 7.00.
Turning to `COc1ccc2c(Oc3ccc(NS(N)(=O)=O)cc3)c(C)cnc2c1` [Example 300, N-(4-((7-methoxy-3-methylquinolin-4-yl)oxy)phenyl)sulfamide], the “Substrate Selectivity” value at ENPP1 [1] was 13.7. The pKi was 6.00 to 7.00 on ENPP1 [2] and above 7.00 at ENPP1 [3].
In the same order, the values of `COc1ccc2c(NCc3ccc(S(N)(=O)=O)cc3)ccnc2c1` [Example 293, 4-(((7-methoxyquinolin-4-yl)amino)methyl)benzenesulfonamide] are 17.9, above 7.00 and above 7.00.
In the same order, the values of `COc1ccc2c(Oc3ccc(NS(=O)(=O)NN)cc3)ccnc2c1` [Example 362, N-(4-((7-methoxyquinolin-4-yl)oxy)phenyl)hydrazinesulfonamide] are above 216, below 6.00 and 6.00 to 7.00.
In the same order, the values of `COc1cc2nccc(Oc3ccc(NS(=O)(=O)c4ccccc4)cc3)c2cc1OC` [Example 86, N-(4-((6,7-dimethoxyquinolin-4-yl)oxy)phenyl)benzenesulfonamide] are above 43.2, 6.00 to 7.00 and above 7.00.
As for `NS(=O)(=O)N1CCC2(CCN(c3ncnc4cc(F)ccc34)CC2)C1` [Example 250, 8-(7-fluoroquinazolin-4-yl)-2,8-diazaspiro [4.5] decane-2-sulfonamide], the “Substrate Selectivity” value on ENPP1 [1] is above 89.3. Besides, the negative-log Ki (pKi) at ENPP1 [2] is below 6.00; at ENPP1 [3], above 7.00.
In the same order, the values of `COc1ccc2c(Oc3ccc4c(c3)CCN4S(N)(=O)=O)ccnc2c1` [Example 404, 5-((7-methoxyquinolin-4-yl)oxy)indoline-1-sulfonamide] are above 103, 6.00 to 7.00 and above 7.00.
For `COc1cc2nccc(Oc3cc(F)c(NS(N)(=O)=O)c(F)c3)c2cc1OC` [Example 271, N-(4-((6,7-dimethoxyquinolin-4-yl)oxy)-2,6-difluorophenyl)sulfamide], in that order: above 16.2, below 6.00 and 6.00 to 7.00.

Values taken from patent US20230183239A1, “ECTONUCLEOTIDE PYROPHOSPHATASE-PHOSPHODIESTERASE 1 (ENPP-1) INHIBITORS AND USES THEREOF” (AbbVie Inc., priority 2017, published 2023).
